ChEMBL document CHEMBL1137948, “The design and synthesis of sulfonamides as caspase-1 inhibitors” (Bioorg Med Chem Lett, 2004)

molecular target: T1, Caspase-1 (Homo sapiens, UniProt P29466); assay: (§1) Inhibitory activity against caspase-1
T1 sequence (P29466 whole entry): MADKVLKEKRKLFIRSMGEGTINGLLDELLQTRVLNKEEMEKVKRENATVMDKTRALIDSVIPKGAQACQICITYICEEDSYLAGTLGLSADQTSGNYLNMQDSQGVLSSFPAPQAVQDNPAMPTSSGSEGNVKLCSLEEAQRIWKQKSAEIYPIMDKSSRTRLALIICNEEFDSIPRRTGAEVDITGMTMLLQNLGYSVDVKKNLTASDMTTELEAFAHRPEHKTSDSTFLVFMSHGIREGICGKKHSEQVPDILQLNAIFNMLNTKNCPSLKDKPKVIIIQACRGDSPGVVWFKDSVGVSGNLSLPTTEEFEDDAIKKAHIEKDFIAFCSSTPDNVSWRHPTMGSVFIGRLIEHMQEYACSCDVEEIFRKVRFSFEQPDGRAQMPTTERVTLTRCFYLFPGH

Row | Compound | IC50 [µM] | Ki [µM]
1 | O=C(O)CC(NC(=O)OCc1ccccc1)C(=O)CNS(=O)(=O)Cc1ccccc1 (centres undefined) | 168 | 
2 | O=C(O)CC(NC(=O)OCc1ccccc1)C(=O)CCCCCc1ccccc1 (centres undefined) | 1030 | 119
3 | CC(C)[C@H](NC(=O)OCc1ccccc1)C(=O)N[C@@H](C)C(=O)NC(CC(=O)O)C(=O)CCCCCc1ccccc1 (some centres undefined) | 0.976 | 0.134

Stronger by IC50, values ahead:

Row | IC50 [µM] | Ki [µM] | Compound
4 | 0.071 | 0.014 | CC(=O)N[C@@H](Cc1ccc(O)cc1)C(=O)N[C@H](C(=O)N[C@@H](C)C(=O)NC(CC(=O)O)C(=O)CCCCCc1ccccc1)C(C)C (some centres undefined)
5 | 0.0253 | 0.0239 | C[C@H](NC(=O)[C@H](CCC(=O)O)NC(=O)OCc1ccccc1)C(=O)NC(CC(=O)O)C(=O)CNS(=O)(=O)CCc1ccccc1 (some centres undefined)
6 | 0.072 | 0.004 | CC(C)[C@H](NC(=O)OCc1ccccc1)C(=O)N[C@@H](C)C(=O)NC(CC(=O)O)C(=O)CNS(=O)(=O)CCc1ccccc1 (some centres undefined)
7 | 0.0034 | 0.004 | CC(=O)N[C@@H](Cc1ccc(O)cc1)C(=O)N[C@@H](CCC(=O)O)C(=O)N[C@@H](C)C(=O)NC(CC(=O)O)C(=O)CNS(=O)(=O)CCc1ccccc1 (some centres undefined)

molecular target: not listed separately; assay: as §1

Row | Ki [µM] | Compound
8 | 18 | O=C(O)CC(NC(=O)OCc1ccccc1)C(=O)CNS(=O)(=O)Cc1ccccc1 (centres undefined)
